pIC50, pKd: −log10 of the molar value. Activity calls are given as the source filed them. The rule behind the calls is not given here.
Key:
NCI-H1975 [1] = assay: Induction of apoptosis in human NCI-H1975 cells assessed as regulation of Fas expression by Western blot analysis; format: functional, cell-based
NCI-H1975 [2] = assay: Induction of apoptosis in human NCI-H1975 cells with siRNA mediated […] knockdown assessed as late apoptotic cells at 2 micromol/L incubated for 24 hrs by Annexin V-FITC/PI staining based analysis (reference value: 6.25%); format: functional; settings: dose 2 µmol/L, at 2 µM
NCI-H1975 [3] = assay: Induction of apoptosis in human NCI-H1975 cells transfected with siRNA assessed as late apoptotic cells at 1 micromol/L incubated for 24 hrs by Annexin V-FITC/PI staining based analysis (reference value: 4.03%); format: functional; settings: dose 1 µmol/L, at 1 µM
NCI-H1975 [4] = assay: Induction of apoptosis in human NCI-H1975 cells assessed as regulation of cleaved Caspase-9 expression by Western blot analysis; format: functional, cell-based
NCI-H1975 [5] = assay: Antitumor activity against human NCI-H1975 cells xenografted in athymic nu/nu mouse assessed as damage in tumor tissue at 2.4 to 4.8 mg/kg, ip administered every 2 days for 11 days by H and E staining based analysis; format: functional, organism-based; settings: dose 2.4-4.8 mg/kg, time 11.0 day
HCC827 [6] = assay: Antiproliferative activity against human HCC827 cells assessed as inhibition of clone formation rate; format: functional, cell-based
NCI-H1975 [7] = assay: Antiproliferative activity against human NCI-H1975 cells assessed as reduction in clone size; format: functional, cell-based
NCI-H1975 [8] = assay: Induction of oxidative phosphorylation in human NCI-H1975 cells assessed as increase in ATP production by luminescence based assay; format: functional, cell-based
NCI-H1975 [9] = assay: Synergistic antiproliferative activity against human NCI-H1975 cells harboring EGFR mutant assessed as cell growth inhibition at 0.5 to 4 micromol/L incubated for 24 hrs in presence of 2.5 to 20 micromol/L gefitinib by CCK-8 assay; format: functional, cell-based; settings: dose 0.5-4 µmol/L
NCI-H1975 [10] = assay: Induction of apoptosis in human NCI-H1975 cells assessed as regulation of cleaved PARP expression by Western blot analysis; format: functional, cell-based
NCI-H1975 [11] = assay: Induction of apoptosis in human NCI-H1975 cells transfected with siRNA assessed as late apoptotic cells at 2 micromol/L incubated for 24 hrs by Annexin V-FITC/PI staining based analysis (reference value: 4.03%); format: functional; settings: dose 2 µmol/L, at 2 µM
NCI-H1975 [12] = assay: Induction of apoptosis in human NCI-H1975 cells assessed as regulation of caspase-8 expression by Western blot analysis; format: functional, cell-based
HCC827 [13] = assay: Antiproliferative activity against human HCC827 cells transfected with siRNA assessed as inhibition of cell growth incubated for 24 hrs by CCK-8 assay; format: functional, cell-based; settings: HCC827, 24 h
NCI-H1975 [14] = assay: Induction of apoptosis in human NCI-H1975 cells assessed as early apoptotic cells at 2 micromol/L incubated for 24 hrs by Annexin V-FITC/PI staining based analysis (reference value: 1.88%); format: functional; settings: dose 2 µmol/L, at 2 µM
NCI-H1975 [15] = assay: Induction of apoptosis in human NCI-H1975 cells assessed as late apoptotic cells at 0.5 micromol/L incubated for 24 hrs in presence of gefitinib by Annexin V-FITC/PI staining based analysis (reference value: 8.61%); format: functional; settings: dose 0.5 µmol/L, at 0.5 µM
Pyruvate kinase PKM = Pyruvate kinase PKM (Homo sapiens, UniProt P14618); assay: Activation of PKM2 in human HCC827 cells at 1 to 2 micromol/L by Western blot analysis; format: cell-based; settings: filed as activator, dose 1-2 µmol/L
NCI-H1975 [16] = assay: Induction of apoptosis in human NCI-H1975 cells assessed as live cells at 0.5 micromol/L incubated for 24 hrs by Annexin V-FITC/PI staining based analysis (reference value: 88.7%); format: functional; settings: dose 0.5 µmol/L, at 0.5 µM
in vitro = settings: human, HEK293T cells
Description: Cytotoxicity against HEK293T cells assessed as inhibition of cell growth incubated for 24 hrs by CCK-8 assay

NCI-H1975 [17] = assay: Antitumor activity against human NCI-H1975 cells xenografted in athymic nu/nu mouse assessed as induction of apoptosis in tumor at 2.4 to 4.8 mg/kg, ip administered every 2 days for 11 days by TUNEL assay; format: functional, organism-based; settings: dose 2.4-4.8 mg/kg, time 11.0 day
NCI-H1299 [18] = assay: cells; format: functional, cell-based; settings: Homo sapiens, NCI-H1299, 24 h
Description: Antiproliferative activity against human NCI-H1299 cells assessed as inhibition of cell growth incubated for 24 hrs by CCK-8 assay

NCI-H1975 [19] = assay: Induction of apoptosis in human NCI-H1975 cells assessed as late apoptotic cells at 1 micromol/L incubated for 24 hrs by Annexin V-FITC/PI staining based analysis (reference value: 2.66%); format: functional; settings: dose 1 µmol/L, at 1 µM
NCI-H1975 [20] = assay: Induction of apoptosis in human NCI-H1975 cells assessed as late apoptotic cells at 2 micromol/L incubated for 24 hrs by Annexin V-FITC/PI staining based analysis (reference value: 2.66%); format: functional; settings: dose 2 µmol/L, at 2 µM
HCC827 [21] = assay: Induction of apoptosis in human HCC827 cells assessed as late apoptotic cells at 2 micromol/L incubated for 24 hrs by Annexin V-FITC/PI staining based analysis (reference value: 8.42%); format: functional; settings: dose 2 µmol/L, at 2 µM
NCI-H1975 [22] = assay: Antiproliferative activity against human NCI-H1975 cells assessed as inhibition of clone formation rate; format: functional, cell-based
NCI-H1975 [23] = assay: Induction of apoptosis in human NCI-H1975 cells assessed as dead cells at 0.5 micromol/L incubated for 24 hrs by Annexin V-FITC/PI staining based analysis (reference value: 0.103%); format: functional; settings: dose 0.5 µmol/L, at 0.5 µM
[24] = biological target: [Pyruvate dehydrogenase (acetyl-transferring)] kinase isozyme 1, mitochondrial (Homo sapiens, UniProt Q15118); assay: Binding affinity to PDK1 (unknown origin) assessed as dissociation constant associated for 60 secs and dissociated for 90 secs by bio-layer interferometry analysis
NCI-H1299 [25] = assay: Induction of apoptosis in human NCI-H1299 cells assessed as late apoptotic cells at 2 micromol/L incubated for 24 hrs by Annexin V-FITC/PI staining based analysis (reference value: 14.9%); format: functional; settings: dose 2 µmol/L, at 2 µM
HCC827 [26] = assay: Induction of apoptosis in human HCC827 cells assessed as early apoptotic cells at 2 micromol/L incubated for 24 hrs by Annexin V-FITC/PI staining based analysis (reference value: 9.14%); format: functional; settings: dose 2 µmol/L, at 2 µM
A549 = assay: Induction of apoptosis in human A549 cells assessed as early apoptotic cells at 2 micromol/L incubated for 24 hrs by Annexin V-FITC/PI staining based analysis (reference value: […]%); format: functional; settings: dose 2 µmol/L
NCI-H1975 [27] = assay: Inhibition of NADPH production in human NCI-H1975 cells incubated for 2 hrs by NADP+/NADPH assay; format: functional, cell-based
HCC827 [28] = assay: Effect on PKM2 protein expression in human HCC827 cells at 1 to 2 micromol/L by Western blot analysis; format: functional, cell-based; settings: dose 1-2 µmol/L
NCI-H1299 [29] = assay: Induction of intracellular ROS accumulation in human NCI-H1299 cells; format: functional, cell-based
NCI-H1975 [30] = assay: Induction of apoptosis in human NCI-H1975 cells assessed as regulation of cleaved caspase-8 expression by Western blot analysis; format: functional, cell-based
NCI-H1975 [31] = assay: Induction of mitochondrial transmembrane potential dissipation in human NCI-H1975 cells assessed as cells with low mitochondrial transmembrane potential at 1 micromol/L by FL-1/FL-2 channel based fluorescence analysis (reference value: 2.13%); format: functional; settings: dose 1 µmol/L; at 1 µM
NCI-H1975 [32] = assay: Induction of mitochondrial transmembrane potential dissipation in human NCI-H1975 cells assessed as cells with high mitochondrial transmembrane potential at 1 micromol/L by FL-1/FL-2 channel based fluorescence analysis (reference value: 97.4%); format: functional; settings: dose 1 µmol/L; at 1 µM

Sequence of [Pyruvate dehydrogenase (acetyl-transferring)] kinase isozyme 1, mitochondrial (Q15118 whole entry): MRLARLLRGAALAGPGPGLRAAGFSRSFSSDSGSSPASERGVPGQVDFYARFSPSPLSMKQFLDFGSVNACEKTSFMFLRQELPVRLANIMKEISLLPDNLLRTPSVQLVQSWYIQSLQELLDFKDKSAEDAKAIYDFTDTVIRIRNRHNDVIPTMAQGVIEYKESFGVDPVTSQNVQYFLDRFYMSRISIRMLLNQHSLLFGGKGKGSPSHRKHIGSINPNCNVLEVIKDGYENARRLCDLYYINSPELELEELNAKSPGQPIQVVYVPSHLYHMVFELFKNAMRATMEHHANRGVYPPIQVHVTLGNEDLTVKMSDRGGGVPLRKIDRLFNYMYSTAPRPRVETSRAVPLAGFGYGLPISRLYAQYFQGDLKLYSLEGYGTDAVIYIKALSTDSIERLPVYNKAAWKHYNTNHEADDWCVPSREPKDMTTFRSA
Sequence of Pyruvate kinase PKM (P14618 2-531 limits assumed): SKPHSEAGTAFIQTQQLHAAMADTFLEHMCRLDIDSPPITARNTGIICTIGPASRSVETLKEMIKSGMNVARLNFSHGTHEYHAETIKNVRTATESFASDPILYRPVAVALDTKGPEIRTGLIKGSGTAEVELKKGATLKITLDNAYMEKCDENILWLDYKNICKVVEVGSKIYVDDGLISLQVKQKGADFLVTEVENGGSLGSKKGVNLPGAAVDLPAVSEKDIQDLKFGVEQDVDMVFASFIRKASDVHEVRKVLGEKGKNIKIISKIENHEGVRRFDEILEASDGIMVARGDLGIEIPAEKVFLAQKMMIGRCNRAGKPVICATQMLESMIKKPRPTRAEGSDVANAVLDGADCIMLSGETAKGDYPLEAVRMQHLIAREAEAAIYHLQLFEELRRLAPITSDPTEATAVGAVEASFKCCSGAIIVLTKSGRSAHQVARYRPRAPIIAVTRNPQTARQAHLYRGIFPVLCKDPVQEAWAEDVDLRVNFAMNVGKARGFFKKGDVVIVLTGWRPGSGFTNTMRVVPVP

Q: For COC(=O)[C@H](CS[C@H](CC=C(C)C)C1=CC(=O)c2c(O)ccc(O)c2C1=O)NC(=O)CCCC[C@@H]1CCSC(c2ccccc2C)S1 (stereo not given in full), which Activity (NCI-H1975 [1]) is on record?
A: Active

Q: And the Activity (NCI-H1975 [2])?
A: 8.16%

Q: And the Activity (NCI-H1975 [3])?
A: 7.86%

Q: What about the Activity (NCI-H1975 [4]) of the same molecule?
A: Active

Q: And the Activity (NCI-H1975 [5])?
A: Active

Q: What about the Activity (HCC827 [6]) of the same molecule?
A: Dose-Dependent Effect

Q: And the Activity (NCI-H1975 [7])?
A: Dose-Dependent Effect

Q: What about the Activity (NCI-H1975 [8]) of the same molecule?
A: Active

Q: And the Activity (NCI-H1975 [9])?
A: Active

Q: And the Activity (NCI-H1975 [10])?
A: Active

Q: What about the Activity (NCI-H1975 [11]) of the same molecule?
A: 9.4%

Q: What about the Activity (NCI-H1975 [12]) of the same molecule?
A: Active

Q: What about the pIC50 (HCC827 [13]) of the same molecule?
A: 5.22

Q: And the Activity (NCI-H1975 [14])?
A: 22.2%

Q: And the Activity (NCI-H1975 [15])?
A: 25%

Q: And the Activity (Pyruvate kinase PKM)?
A: Active

Q: What about the Activity (NCI-H1975 [16]) of the same molecule?
A: 87.3%

Q: What about the IC50 at 24 h (in vitro) of the same molecule?
A: 99.5 µM

Q: And the Activity (NCI-H1975 [17])?
A: Active

Q: What about the pIC50 (NCI-H1299 [18]) of the same molecule?
A: 5.26

Q: And the Activity (NCI-H1975 [19])?
A: 23.6%

Q: What about the Activity (NCI-H1975 [20]) of the same molecule?
A: 37.3%

Q: And the Activity (HCC827 [21])?
A: 41.1%

Q: And the Activity (NCI-H1975 [22])?
A: Dose-Dependent Effect

Q: And the Activity (NCI-H1975 [23])?
A: 0%

Q: What about the pKd [24] of the same molecule?
A: 4.92

Q: What about the Activity (NCI-H1299 [25]) of the same molecule?
A: 24.5%

Q: What about the Activity (HCC827 [26]) of the same molecule?
A: 29.4%

Q: What about the Activity (A549) of the same molecule?
A: 11.8%

Q: And the inhibition (NCI-H1975 [27])?
A: Active

Q: What about the Activity (HCC827 [28]) of the same molecule?
A: inactive

Q: And the Activity (NCI-H1299 [29])?
A: Active

Q: And the Activity (NCI-H1975 [30])?
A: Active

Q: What about the Activity (NCI-H1975 [31]) of the same molecule?
A: 11.8%

Q: And the Activity (NCI-H1975 [32])?
A: 62.2%

— ChEMBL document CHEMBL5346899, “PKM2/PDK1 dual-targeted shikonin derivatives restore the sensitivity of EGFR-mutated NSCLC cells to gefitinib by remodeling glucose metabolism” (Eur J Med Chem, 2023)
